Among the test systems are OVCAR-8 ovarian; HOP-18 NSCLC; RXF 393 renal; OVCAR-4 ovarian; LOX IMVI melanoma; SR leukemia; MOLT-4 leukemia; 786-0 renal; SK-MEL-2 melanoma; LXFL 529 NSCLC.
Assay in all cases: NCI-60 cell line screen, 48 h

Where “and” joins values, the source holds several entries; their conditions need not be identical. Equal values may be shown once.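 Step 1: Grow cells in 96-well plates. Step 2: Expose to compound for 48 hours at 5 concentrations. Step 3: Interpolate endpoints linearly; if unreached, use highest concentration. GI50 marks 50% less growth. At the TGI there is no net growth.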 A value given as a limit tells only on which side of the number the result lay.

For `CC(=O)OCc1cc(OC(C)=O)cnc1COC(C)=O`, the TGI in the assay on OVCAR-8 ovarian, in the assay with HOP-18 NSCLC, with RXF 393 renal, in the assay with OVCAR-4 ovarian, in the assay with LOX IMVI melanoma and in the assay with SR leukemia was above 100 µM each time. Also, the TGI in the assay with MOLT-4 leukemia, in the assay on 786-0 renal, with SK-MEL-2 melanoma and in the assay with LXFL 529 NSCLC was above 100 µM each time.
In the case of `N/C(=N\N=C\c1cccs1)NO`, the TGI in the assay on OVCAR-8 ovarian, with HOP-18 NSCLC, in the assay with RXF 393 renal, with OVCAR-4 ovarian, with SR leukemia and in the assay with 786-0 renal was above 100 µM each time. The TGI with SK-MEL-2 melanoma and in the assay on LXFL 529 NSCLC was above 100 µM each time.
As to `COc1cc2ccc3c4c(OC)cc(OC)c(OC)c4c(=O)n(C)c3c2cc1OC`, the GI50 in the assay on OVCAR-8 ovarian is 0.451 µM; in the assay on RXF 393 renal, 3.44 µM; in the assay on OVCAR-4 ovarian it was 2.67 µM; in the assay with LOX IMVI melanoma it was 1.53 µM; in the assay with MOLT-4 leukemia, 0.591 µM; in the assay with 786-0 renal, 1.78 µM. Also, the GI50 in the assay with SK-MEL-2 melanoma was 3.29 µM; in the assay with LXFL 529 NSCLC it was 0.766 µM. The TGI in the assay on HOP-18 NSCLC was above 100 µM; in the assay on RXF 393 renal it was 16.7 µM and > 44.7 µM; in the assay with OVCAR-4 ovarian, 8.32 µM and > 45.8 µM; in the assay with LOX IMVI melanoma, 3.8 µM; in the assay with SR leukemia it was 2.97 µM; with MOLT-4 leukemia, 10.2 µM and 3.79 µM. Moreover, the TGI was 16.7 µM and > 47.6 µM with SK-MEL-2 melanoma; 2.86 µM and > 26.8 µM in the assay on LXFL 529 NSCLC.
In the case of `COc1cc(/C=C2\[C@H]3c4c(c(OC)c(C)c(OC)c4OC)C[C@@H](C(=O)N2Cc2ccccc2)N3C(=O)OC(C)C)c(OC)c(C)c1OC`, the TGI with OVCAR-8 ovarian, with HOP-18 NSCLC, in the assay on RXF 393 renal, in the assay with OVCAR-4 ovarian, in the assay on LOX IMVI melanoma and in the assay with SR leukemia was above 100 µM throughout. Moreover, the TGI with MOLT-4 leukemia, in the assay on 786-0 renal, in the assay on SK-MEL-2 melanoma and in the assay on LXFL 529 NSCLC was above 100 µM throughout.
In the case of `Cc1c(C(=O)CC(=O)C(=O)Nc2ccc(Cl)c(Cl)c2)[n+](=O)c2ccccc2n1[O-]`, the TGI was 43.6 µM in the assay on OVCAR-8 ovarian; 92.2 µM with RXF 393 renal; 34.7 µM with OVCAR-4 ovarian; 53.2 µM in the assay on LOX IMVI melanoma; 44.5 µM in the assay on MOLT-4 leukemia; 69 µM with 786-0 renal. For the same compound, the TGI with SK-MEL-2 melanoma worked out at 57 µM; with LXFL 529 NSCLC, 32.4 µM.
Regarding `C#CCOCn1cnc2c(=S)nc[nH]c21`, the TGI with OVCAR-8 ovarian, in the assay with RXF 393 renal, with OVCAR-4 ovarian, in the assay on LOX IMVI melanoma, in the assay on 786-0 renal and with SK-MEL-2 melanoma was above 100 µM in each case. Moreover, in the assay on LXFL 529 NSCLC, the TGI was above 100 µM.
For the compound `CC(=O)NC(CCCCNC(=O)N(CCCl)N=O)C(=O)NCc1ccccc1` (stereo not drawn), the TGI with OVCAR-8 ovarian, with HOP-18 NSCLC, in the assay with OVCAR-4 ovarian, in the assay on SR leukemia, with MOLT-4 leukemia and with 786-0 renal was above 100 µM throughout. The TGI with SK-MEL-2 melanoma and in the assay with LXFL 529 NSCLC was above 100 µM in each case.
As to `CNNCc1ccc(C(=O)NC(C)C)cc1`, the TGI with OVCAR-8 ovarian was above 500 µM; with HOP-18 NSCLC it was 139 µM and > 500 µM; in the assay with RXF 393 renal, above 500 µM; in the assay on OVCAR-4 ovarian it was above 500 µM; in the assay on LOX IMVI melanoma it was above 500 µM; in the assay with SR leukemia, above 375 µM. In addition, the TGI with MOLT-4 leukemia was 426 µM and > 500 µM; in the assay with 786-0 renal, above 500 µM; in the assay on SK-MEL-2 melanoma, above 500 µM; in the assay with LXFL 529 NSCLC, above 500 µM. The GI50 in the assay with HOP-18 NSCLC, with RXF 393 renal, in the assay on MOLT-4 leukemia and with 786-0 renal was above 500 µM each time.
Turning to `CCC1=C(C)/C(=C/c2[nH]c(CBr)c(CC)c2C)N=C1CBr`, the TGI in the assay on OVCAR-8 ovarian is 26.6 µM; with HOP-18 NSCLC, 24.7 µM; with RXF 393 renal, 54 µM; with OVCAR-4 ovarian, above 100 µM; in the assay with LOX IMVI melanoma, above 100 µM; in the assay on MOLT-4 leukemia, 27.6 µM. Moreover, the TGI with 786-0 renal turned out to be 40.4 µM; in the assay with SK-MEL-2 melanoma it was 48.5 µM; with LXFL 529 NSCLC, 17.9 µM.
Turning to `COc1ccc(C(c2ccc(C(C)C)cc(=O)c2O)c2ccc3cccnc3c2O)cc1` (stereo not drawn), the TGI in the assay on OVCAR-8 ovarian was 12.7 µM; in the assay on OVCAR-4 ovarian, 23.9 µM; in the assay on LOX IMVI melanoma, above 100 µM; in the assay with SR leukemia, 15.9 µM; in the assay on MOLT-4 leukemia, above 100 µM; in the assay on 786-0 renal, 5.61 µM. For the same compound, the figures for the TGI in the assay on SK-MEL-2 melanoma and in the assay on LXFL 529 NSCLC were 30.1 µM and 15.7 µM, respectively.
Take `COc1cc(-c2cc(=O)c3ccccc3o2)ccc1N`: the TGI in the assay with OVCAR-8 ovarian, with HOP-18 NSCLC, in the assay on RXF 393 renal, with OVCAR-4 ovarian, in the assay on LOX IMVI melanoma and with MOLT-4 leukemia was above 100 µM throughout. Also, the TGI with 786-0 renal, in the assay with SK-MEL-2 melanoma and in the assay with LXFL 529 NSCLC was above 100 µM in each case.
`O=c1c2ccccc2nc(-c2ccc(Br)cc2)n1NC1OC(CO)C(O)C(O)C1O` (stereo not drawn): the TGI with OVCAR-8 ovarian, in the assay with HOP-18 NSCLC, with OVCAR-4 ovarian, in the assay on MOLT-4 leukemia, in the assay on 786-0 renal and in the assay with SK-MEL-2 melanoma was above 100 µM each time. The compound further registered a TGI with LXFL 529 NSCLC above 100 µM.
With `O=C(/C=C\c1cccc2ccccc12)c1cccs1`, the TGI is 24.9 µM in the assay with OVCAR-8 ovarian; 21.8 µM with HOP-18 NSCLC; 32.9 µM with OVCAR-4 ovarian; 35.8 µM with MOLT-4 leukemia; 22.5 µM in the assay with 786-0 renal; 22.9 µM in the assay with LXFL 529 NSCLC.
Turning to `C/C=C/C=N/N(C(=O)c1cc([N+](=O)[O-])cc([N+](=O)[O-])c1)C1=NC(c2ccccc2)C(c2ccccc2)=NN1` (stereo not drawn), the TGI in the assay with OVCAR-8 ovarian, in the assay with HOP-18 NSCLC, with RXF 393 renal, with OVCAR-4 ovarian, in the assay on LOX IMVI melanoma and with MOLT-4 leukemia was above 100 µM throughout. Further, the TGI in the assay with 786-0 renal and with SK-MEL-2 melanoma was above 100 µM throughout.

The values are drawn from PubChem BioAssay (NCI).
